Data taken from patent US20220265692A1, “ORALLY-ADMINISTERED PHARMACEUTICAL COMPOSITION FOR ERADICATING ANTIBIOTIC-RESISTANT HELICOBACTER PYLORI, COMPRISING COMPLEX OF NON-ABSORBABLE ANTIBIOTIC AND CLAY MINERAL” (priority 2019, published 2022).
Where two headings read alike, the source gives them in different places.

How the values were obtained:
Helicobacter pylori = conditions: general statement; cited from earlier work
[1] = test system: Helicobacter pylori clinical strains; assay: Evaluation of antibiotic resistant rate (in vitro MIC, 187 clinical strains); format: cell-based
Protocol: Complexes of antibiotics (amoxicillin, clarithromycin, metronidazole, levofloxacin, and tetracyclin) and smectite which have been actually used for Helicobacter eradication treatment in current clinical trials were prepared and in vitro MIC for non-absorbable antibiotic candidate groups gentamicin, netilmicin, tobramycin, amikacin) to be used as a novel therapeutic agent was measured, and MIC50 and MIC90 were confirmed. To this end, 187 cultured positive clinical strains obtained from 1,265 patient samples were used.

[2] = test system: clarithromycin-resistant Helicobacter pylori; assay: Eradication activity in vitro on clarithromycin-resistant strain (disk); format: cell-based; conditions: strain with MIC of CLR 48 mg/L, twice repeated tests
Source text: Clarithromycin-resistant Helicobacter pylori was applied (red) in a medium and then a sample was made in a disk form and placed on the medium to measure the eradication effect. At this time, it was meant that if red disappeared around the disk, there was the eradication effect.

| Compound | resistant rate ([1]; based on MIC 1 μg/ml) | further results |
| --- | --- | --- |
| CC1(C)S[C@@H]2[C@H](NC(=O)[C@H](N)c3ccc(O)cc3)C(=O)N2[C@H]1C(=O)O [Amoxicilin, amoxicillin] | – | resistance (Helicobacter pylori): less than 10% |
| NCC[C@H](O)C(=O)N[C@@H]1C[C@H](N)[C@@H](O[C@H]2O[C@H](CN)[C@@H](O)[C@H](O)[C@H]2O)[C@H](O)[C@H]1O[C@H]1O[C@H](CO)[C@@H](O)[C@H](N)[C@H]1O [amikacin] | 61.3% | – |
| CC[C@H]1OC(=O)[C@H](C)[C@@H](O[C@H]2C[C@@](C)(OC)[C@@H](O)[C@H](C)O2)[C@H](C)[C@@H](O[C@@H]2O[C@H](C)C[C@H](N(C)C)[C@H]2O)[C@](C)(OC)C[C@@H](C)C(=O)[C@H](C)[C@@H](O)[C@]1(C)O [clarithromycin] | – | resistant rate [1]: 29.8%; eradication effect on clarithromycin-resistant H. pylori (clear zone around disk) [2]: the clear zone was not shown |
| C[C@H]1COc2c(N3CCN(C)CC3)c(F)cc3c(=O)c(C(=O)O)cn1c23 [levofloxacin] | – | resistant rate [1]: 37.2% |
| CCN[C@@H]1C[C@H](N)[C@@H](O[C@H]2OC(CN)=CC[C@H]2N)[C@H](O)[C@H]1O[C@H]1OC[C@](C)(O)[C@H](NC)[C@H]1O [netilmicin] | 1.43% | – |
| NC[C@H]1O[C@H](O[C@H]2[C@H](O)[C@@H](O[C@H]3O[C@H](CO)[C@@H](O)[C@H](N)[C@H]3O)[C@H](N)C[C@@H]2N)[C@H](N)C[C@@H]1O [tobramycin] | 36.3% | – |
| gentamicin | 2.78% | – |
